Data taken from patent EP1171107B1, “USE OF A PHARMACEUTICAL COMPOSITION IN THE MANUFACTURE OF A MEDICAMENT FOR THE TREATMENT OF PATHOLOGICAL CONDITIONS OF THE EYE CAUSED BY BACTERIA, VIRUSES, FUNGI, YEASTS AND PROTOZOA” (Dr. GERHARD MANN chem.-pharm. Fabrik GmbH, priority 1999, dated 2000).

What was measured:
Format in all cases: cell-based
H.influenzae = experiment: Quantitative germ count (re-isolation, surface method) after inoculating the test preparation; conditions: Ausgangskeimzahl 2,8 x 10^5 KBE/ml
Procedure, shortened: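 Surviving germs were counted by the surface method: an aliquot was spiral-plated on Kochblut-Agar and incubated at 33±2°C for max. 4 Tage, giving re-isolated counts in KBE/ml with a detection limit of 100 KBE/ml. Initial germ counts were also set by spiral-plater surface plating. The H. influenzae strain was pretested biochemically for identity and purity.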

Sc. pneumoniae [1] = experiment: as above; conditions: Ausgangskeimzahl 3,7 x 10^5 KBE/ml
Procedure, shortened: (§1)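 Test preparations (5 ml) inoculated with ca. 10^5 CFU/ml of each strain, one tube per time point. After 2, 6, 8, 24, 32, 48 and 72 h, cells pelleted, washed and resuspended in NaCl-peptone buffer, then spiral-plated on Caso agar and incubated at 33±2 °C up to 4 days. Detection limit 100 CFU/ml.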

E.coli [2] = experiment: as above; conditions: Ausgangskeimzahl 2,7 x 10^5 KBE/ml
S.aureus [3] = experiment: as above; conditions: Ausgangskeimzahl 2,6 x 10^5 KBE/ml
Procedure, shortened: as §1

P.aeruginosa [4] = experiment: Qualitative examination: enrichment of the inoculated test preparation in broth
Procedure, shortened: (§2)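 Growth/no growth after broth enrichment read out; negative enrichment taken as elimination of inoculum. Inoculum ca. 10^5 CFU/ml in 5 ml test substance, contact 2–72 h, then centrifugation wash in NaCl-peptone buffer, 2 ml into 20 ml Caso broth or Fildes medium, ≤4 d, 33±2°C.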

S.epidermidis [5] = experiment: Quantitative germ count (re-isolation, surface method) after inoculating the test preparation; conditions: Ausgangskeimzahl 2,1 x 10^5 KBE/ml
Procedure, shortened: as §1

P.aeruginosa [6] = experiment: as above; conditions: Ausgangskeimzahl 2,7 x 10^5 KBE/ml
Procedure, shortened: as §1

Sc. pneumoniae [7] = experiment: Qualitative examination: enrichment of the inoculated test preparation in broth
Procedure, shortened: as §2

E.coli [8] = experiment: as above
Procedure, shortened: as §2

S.epidermidis [9] = experiment: as above
Procedure, shortened: as §2

S.aureus [10] = experiment: as above
Procedure, shortened: as §2

## Benzalkoniumchlorid [Benzalkoniumchlorid 0,0025 Gew.-%]
H.influenzae; 2 h after inoculation
  Ergebnis der Reisolierung (in KBE/ml): <100 KBE/ml
H.influenzae; 4 h after inoculation
  Ergebnis der Reisolierung (in KBE/ml): <100 KBE/ml
H.influenzae; 6 h after inoculation
  Ergebnis der Reisolierung (in KBE/ml): <100 KBE/ml
H.influenzae; 8 h after inoculation
  Ergebnis der Reisolierung (in KBE/ml): <100 KBE/ml
H.influenzae; 24 h after inoculation
  Ergebnis der Reisolierung (in KBE/ml): <100 KBE/ml
H.influenzae; 32 h after inoculation
  Ergebnis der Reisolierung (in KBE/ml): <100 KBE/ml
H.influenzae; 48 h after inoculation
  Ergebnis der Reisolierung (in KBE/ml): <100 KBE/ml
H.influenzae; 72 h after inoculation
  Ergebnis der Reisolierung (in KBE/ml): <100 KBE/ml
Sc. pneumoniae [1]; 2 h after inoculation
  Ergebnis der Reisolierung (in KBE/ml): <100 KBE/ml
Sc. pneumoniae [1]; 4 h after inoculation
  Ergebnis der Reisolierung (in KBE/ml): <100 KBE/ml
Sc. pneumoniae [1]; 6 h after inoculation
  Ergebnis der Reisolierung (in KBE/ml): <100 KBE/ml
Sc. pneumoniae [1]; 8 h after inoculation
  Ergebnis der Reisolierung (in KBE/ml): <100 KBE/ml
Sc. pneumoniae [1]; 24 h after inoculation
  Ergebnis der Reisolierung (in KBE/ml): <100 KBE/ml
Sc. pneumoniae [1]; 32 h after inoculation
  Ergebnis der Reisolierung (in KBE/ml): <100 KBE/ml
Sc. pneumoniae [1]; 48 h after inoculation
  Ergebnis der Reisolierung (in KBE/ml): <100 KBE/ml
Sc. pneumoniae [1]; 72 h after inoculation
  Ergebnis der Reisolierung (in KBE/ml): <100 KBE/ml
E.coli [2]; 2 h after inoculation
  Ergebnis der Reisolierung (in KBE/ml): <100 KBE/ml
E.coli [2]; 4 h after inoculation
  Ergebnis der Reisolierung (in KBE/ml): <100 KBE/ml
E.coli [2]; 6 h after inoculation
  Ergebnis der Reisolierung (in KBE/ml): <100 KBE/ml
E.coli [2]; 8 h after inoculation
  Ergebnis der Reisolierung (in KBE/ml): <100 KBE/ml
E.coli [2]; 24 h after inoculation
  Ergebnis der Reisolierung (in KBE/ml): <100 KBE/ml
E.coli [2]; 32 h after inoculation
  Ergebnis der Reisolierung (in KBE/ml): <100 KBE/ml
E.coli [2]; 48 h after inoculation
  Ergebnis der Reisolierung (in KBE/ml): <100 KBE/ml
E.coli [2]; 72 h after inoculation
  Ergebnis der Reisolierung (in KBE/ml): <100 KBE/ml
S.aureus [3]; 2 h after inoculation
  Ergebnis der Reisolierung (in KBE/ml): <100 KBE/ml
S.aureus [3]; 4 h after inoculation
  Ergebnis der Reisolierung (in KBE/ml): <100 KBE/ml
S.aureus [3]; 6 h after inoculation
  Ergebnis der Reisolierung (in KBE/ml): <100 KBE/ml
S.aureus [3]; 8 h after inoculation
  Ergebnis der Reisolierung (in KBE/ml): <100 KBE/ml
S.aureus [3]; 24 h after inoculation
  Ergebnis der Reisolierung (in KBE/ml): <100 KBE/ml
S.aureus [3]; 32 h after inoculation
  Ergebnis der Reisolierung (in KBE/ml): <100 KBE/ml
S.aureus [3]; 48 h after inoculation
  Ergebnis der Reisolierung (in KBE/ml): <100 KBE/ml
S.aureus [3]; 72 h after inoculation
  Ergebnis der Reisolierung (in KBE/ml): <100 KBE/ml
P.aeruginosa [4]; 2 h after inoculation
  Ergebnis der Reisolierung qualitiativ (+/-) nach Anreicherung: - -
P.aeruginosa [4]; 4 h after inoculation
  Ergebnis der Reisolierung qualitiativ (+/-) nach Anreicherung: -
P.aeruginosa [4]; 6 h after inoculation
  Ergebnis der Reisolierung qualitiativ (+/-) nach Anreicherung: -
P.aeruginosa [4]; 8 h after inoculation
  Ergebnis der Reisolierung qualitiativ (+/-) nach Anreicherung: -
P.aeruginosa [4]; 24 h after inoculation
  Ergebnis der Reisolierung qualitiativ (+/-) nach Anreicherung: -
P.aeruginosa [4]; 32 h after inoculation
  Ergebnis der Reisolierung qualitiativ (+/-) nach Anreicherung: -
P.aeruginosa [4]; 48 h after inoculation
  Ergebnis der Reisolierung qualitiativ (+/-) nach Anreicherung: -
P.aeruginosa [4]; 72 h after inoculation
  Ergebnis der Reisolierung qualitiativ (+/-) nach Anreicherung: -
S.epidermidis [5]; 2 h after inoculation
  Ergebnis der Reisolierung (in KBE/ml): <100 KBE/ml
S.epidermidis [5]; 4 h after inoculation
  Ergebnis der Reisolierung (in KBE/ml): <100 KBE/ml
S.epidermidis [5]; 6 h after inoculation
  Ergebnis der Reisolierung (in KBE/ml): <100 KBE/ml
S.epidermidis [5]; 8 h after inoculation
  Ergebnis der Reisolierung (in KBE/ml): <100 KBE/ml
S.epidermidis [5]; 24 h after inoculation
  Ergebnis der Reisolierung (in KBE/ml): <100 KBE/ml
S.epidermidis [5]; 32 h after inoculation
  Ergebnis der Reisolierung (in KBE/ml): <100 KBE/ml
S.epidermidis [5]; 48 h after inoculation
  Ergebnis der Reisolierung (in KBE/ml): <100 KBE/ml
S.epidermidis [5]; 72 h after inoculation
  Ergebnis der Reisolierung (in KBE/ml): <100 KBE/ml
P.aeruginosa [6]; 2 h after inoculation
  Ergebnis der Reisolierung (in KBE/ml): <100 KBE/ml
P.aeruginosa [6]; 4 h after inoculation
  Ergebnis der Reisolierung (in KBE/ml): <100 KBE/ml
P.aeruginosa [6]; 6 h after inoculation
  Ergebnis der Reisolierung (in KBE/ml): <100 KBE/ml
P.aeruginosa [6]; 8 h after inoculation
  Ergebnis der Reisolierung (in KBE/ml): <100 KBE/ml
P.aeruginosa [6]; 24 h after inoculation
  Ergebnis der Reisolierung (in KBE/ml): <100 KBE/ml
P.aeruginosa [6]; 32 h after inoculation
  Ergebnis der Reisolierung (in KBE/ml): <100 KBE/ml
P.aeruginosa [6]; 48 h after inoculation
  Ergebnis der Reisolierung (in KBE/ml): <100 KBE/ml
P.aeruginosa [6]; 72 h after inoculation
  Ergebnis der Reisolierung (in KBE/ml): <100 KBE/ml
Sc. pneumoniae [7]; 2 h after inoculation
  Ergebnis der Reisolierung qualitiativ (+/-) nach Anreicherung: -
Sc. pneumoniae [7]; 4 h after inoculation
  Ergebnis der Reisolierung qualitiativ (+/-) nach Anreicherung: -
Sc. pneumoniae [7]; 6 h after inoculation
  Ergebnis der Reisolierung qualitiativ (+/-) nach Anreicherung: -
Sc. pneumoniae [7]; 8 h after inoculation
  Ergebnis der Reisolierung qualitiativ (+/-) nach Anreicherung: -
Sc. pneumoniae [7]; 24 h after inoculation
  Ergebnis der Reisolierung qualitiativ (+/-) nach Anreicherung: -
Sc. pneumoniae [7]; 32 h after inoculation
  Ergebnis der Reisolierung qualitiativ (+/-) nach Anreicherung: -
Sc. pneumoniae [7]; 48 h after inoculation
  Ergebnis der Reisolierung qualitiativ (+/-) nach Anreicherung: -
Sc. pneumoniae [7]; 72 h after inoculation
  Ergebnis der Reisolierung qualitiativ (+/-) nach Anreicherung: -
E.coli [8]; 2 h after inoculation
  Ergebnis der Reisolierung qualitiativ (+/-) nach Anreicherung: -
E.coli [8]; 4 h after inoculation
  Ergebnis der Reisolierung qualitiativ (+/-) nach Anreicherung: -
E.coli [8]; 6 h after inoculation
  Ergebnis der Reisolierung qualitiativ (+/-) nach Anreicherung: -
E.coli [8]; 8 h after inoculation
  Ergebnis der Reisolierung qualitiativ (+/-) nach Anreicherung: -
E.coli [8]; 24 h after inoculation
  Ergebnis der Reisolierung qualitiativ (+/-) nach Anreicherung: -
E.coli [8]; 32 h after inoculation
  Ergebnis der Reisolierung qualitiativ (+/-) nach Anreicherung: -
E.coli [8]; 48 h after inoculation
  Ergebnis der Reisolierung qualitiativ (+/-) nach Anreicherung: -
E.coli [8]; 72 h after inoculation
  Ergebnis der Reisolierung qualitiativ (+/-) nach Anreicherung: -
S.epidermidis [9]; 2 h after inoculation
  Ergebnis der Reisolierung qualitiativ (+/-) nach Anreicherung: - -
S.epidermidis [9]; 4 h after inoculation
  Ergebnis der Reisolierung qualitiativ (+/-) nach Anreicherung: -
S.epidermidis [9]; 6 h after inoculation
  Ergebnis der Reisolierung qualitiativ (+/-) nach Anreicherung: -
S.epidermidis [9]; 8 h after inoculation
  Ergebnis der Reisolierung qualitiativ (+/-) nach Anreicherung: -
S.epidermidis [9]; 24 h after inoculation
  Ergebnis der Reisolierung qualitiativ (+/-) nach Anreicherung: -
S.epidermidis [9]; 32 h after inoculation
  Ergebnis der Reisolierung qualitiativ (+/-) nach Anreicherung: -
S.epidermidis [9]; 48 h after inoculation
  Ergebnis der Reisolierung qualitiativ (+/-) nach Anreicherung: -
S.epidermidis [9]; 72 h after inoculation
  Ergebnis der Reisolierung qualitiativ (+/-) nach Anreicherung: -
S.aureus [10]; 2 h after inoculation
  Ergebnis der Reisolierung qualitiativ (+/-) nach Anreicherung: -
S.aureus [10]; 4 h after inoculation
  Ergebnis der Reisolierung qualitiativ (+/-) nach Anreicherung: -
S.aureus [10]; 6 h after inoculation
  Ergebnis der Reisolierung qualitiativ (+/-) nach Anreicherung: -
S.aureus [10]; 8 h after inoculation
  Ergebnis der Reisolierung qualitiativ (+/-) nach Anreicherung: -
S.aureus [10]; 24 h after inoculation
  Ergebnis der Reisolierung qualitiativ (+/-) nach Anreicherung: -
S.aureus [10]; 32 h after inoculation
  Ergebnis der Reisolierung qualitiativ (+/-) nach Anreicherung: -
S.aureus [10]; 48 h after inoculation
  Ergebnis der Reisolierung qualitiativ (+/-) nach Anreicherung: -
S.aureus [10]; 72 h after inoculation
  Ergebnis der Reisolierung qualitiativ (+/-) nach Anreicherung: -
